Where “and” joins values, the source holds several entries; their conditions need not be identical. Identical values can stand only once.
Assays:
[1] = Stability of treated (extracted) human plasma samples of AST-2660 at 4° C. (LC-MS/MS); type: physicochemical; settings: stored for 54 hours at 4° C.
Protocol: (§1) The detection method established in example 4 was used to detect the content of AST-2660 in the human plasma to be tested.
Matrix: the mixed normal human plasma containing anticoagulant (K2 EDTA) • a: the internal standard working solution: AST-2660-D8 was taken, added with methanol, and diluted to prepare a solution containing about 100 ng per 1 ml. • b: the solution to be tested (no internal standard compound was added to the solution to be tested at this time): it was obtained by taking a blood sample to be tested. • c: the standard working solution (no internal standard compound was added to the standard working solution at this time): an appropriate amount of AST-2660 was taken and accurately weighed, dissolved with methanol, and diluted to prepare a solution containing about 1.0 mg per 1 ml, which was used as the standard working stock solution. […]
(§2) Calculation results: the relationship function y=f (x) of the ratio of the peak area of the AST-2660 to that of the internal standard was obtained from AST-2660 standard working solutions with different concentrations. The ratio of the peak area of the AST-2660 to that of the internal standard was determined from the solution to be tested after extraction, and substituted into the relationship function y=f (x) to calculate the concentration of the metabolite II in the solution to be tested.

[2] = Experimental table stability of AST-2660 in human plasma at room temperature (LC-MS/MS); type: in vitro ADME; settings: for AST-2660 concentration, Mean value / AST-2660 concentration, single replicates / RE (%) vs nominal: human plasma, room temperature
Protocol: as §1
Matrix: the mixed normal human plasma containing anticoagulant (K2 EDTA) • a: the internal standard working solution: AST-2660-D8 was taken, added with methanol, and diluted to prepare a solution containing about 100 ng per 1 ml. • b: the solution to be tested (no internal standard compound was added to the solution to be tested at this time): it was obtained by taking a blood sample to be tested. • c: the standard working solution (no internal standard compound was added to the standard working solution at this time): an appropriate amount of AST-2660 was taken and accurately weighed, dissolved with methanol, and diluted to prepare a solution containing about 1.0 mg per 1 ml, which was used as the standard working stock solution. An appropriate amount of the standard working stock solution was taken, added with the matrix and diluted to prepare standard working solutions with different concentrations containing about 200 ng, 160 ng, 100 ng, 50 ng, 10 ng, 2.0 ng, 1.0 ng and 0.5 ng per 1 ml, respectively. (The solution was stored at −70° C.) • d: the quality control sample solution: an appropriate amount of AST-2660 was taken and accurately weighed, dissolved with methanol, and diluted to prepare a solution containing about 10 μg per 1 ml, which was used as the quality control working stock solution. An appropriate amount of the quality control working stock solution was taken, added with matrix to prepare quality control working solutions with different concentrations containing about 150 ng, 60 ng, 15 ng, 1.5 ng and 0.5 ng per 1 ml. (The solution was stored at −70° C.)
The solution to be tested, the standard working solution and the quality control sample solution were thawed at room temperature and mixed uniformly. 100 μl of the above solution was respectively taken, added with 20 μl of the internal standard and 500 μl of methanol, and vortexed for 3 minutes to mix uniformly, and then centrifuged for 10 minutes at 2143 rcf. 450 μl of the supernatant was taken and dried, and 150 μl of methanol was added for redissolution, and sonicated. Then the plates were centrifuged for 3 minutes at 4° C. It was obtained by taking […] of supernatant.
Liquid phase conditions: A SHARC 1, 3 μm, 2.1*50 mm or chromatograph column with equivalent performance was used; the mobile phase was a methanol solution comprising low content of ammonium acetate; the mobile phase B was acetonitrile; the gradient elution was performed according to the following table, column temperature: 20° C.; injection volume: 5 μl.
Mass spectrometric conditions: electrospray ion source with negative ion scanning mode; spray potential: −4500 V; ion source temperature: 500° C.; collision energy (CE): −22 eV; declustering potential (DP): −55V; entrance potential (EP): −10V; collision chamber exit potential (CXP): −16V; dwell time: 100 ms; high purity nitrogen was used for all gases; AST-2660 ions pairs: m/z 147.0→m/z 62.9; the internal standard AST-2660-D8 ion pairs: m/z 155.0→m/z 62.9.
The AST-2660 standard working solution, blank sample, zero concentration sample, sample solution to be tested and quality control sample solution with different concentrations after extraction were respectively taken and injected into LC-MS/MS for detection.
as §2

[3] = DilQC (10-fold dilution) nominal 1500 ng/ml, 0 hour
[4] = DilQC (10-fold dilution) nominal 1500 ng/ml, 4 hours
[5] = DilQC (10-fold dilution) nominal 1500 ng/ml, 24 hours
[6] = QC1 nominal 1.50 ng/ml, 4 hours
[7] = QC1 nominal 1.50 ng/ml, 24 hours
[8] = QC4 nominal 150 ng/ml, 24 hours

For `O=P([O-])(N1CC1)N1CC1.[Na+]` [AST-2660], the “stability of content (in words)” value [1] was “stable”, the “stability (in words)” value ([2]; human plasma samples at room temperature) was “not stable” and the “AST-2660 concentration, Mean value” [2, 3] was 1680 ng/mL. The “AST-2660 concentration, single replicates” value [2, 3] was 1610 ng/mL and 1770 ng/mL and 1700 ng/mL and 1640 ng/mL, the “RE (%) vs nominal” value [2, 3] was 12.0% and the “AST-2660 concentration, Mean value” [2, 4] was 1593 ng/mL. The “AST-2660 concentration, single replicates” value [2, 4] was 1500 ng/mL and 1710 ng/mL and 1600 ng/mL and 1560 ng/mL, the “RE (%) vs nominal” value [2, 4] was 6.2% and the “AST-2660 concentration, Mean value” [2, 5] was 1455 ng/mL. For the same compound, the “AST-2660 concentration, single replicates” value [2, 5] was 1380 ng/mL and 1500 ng/mL and 1480 ng/mL and 1460 ng/mL, the “RE (%) vs nominal” value [2, 5] was −3.0% and the “AST-2660 concentration, Mean value” ([2]; QC1 nominal 1.50 ng/ml, 0 hour) was 1.42 ng/mL. For the same compound, the “AST-2660 concentration, single replicates” value ([2]; QC1 nominal 1.50 ng/ml, 0 hour) was 1.44 ng/mL and 1.32 ng/mL and 1.38 ng/mL and 1.55 ng/mL, the “RE (%) vs nominal” value ([2]; QC1 nominal 1.50 ng/ml, 0 hour) was −5.2% and the “AST-2660 concentration, Mean value” [2, 6] was 1.35 ng/mL. The “AST-2660 concentration, single replicates” value [2, 6] was 1.34 ng/ml (2×) and 1.31 ng/ml and 1.42 ng/ml, the “RE (%) vs nominal” value [2, 6] was −9.8% and the “AST-2660 concentration, Mean value” [2, 7] was 1.32 ng/mL. For the same compound, the “AST-2660 concentration, single replicates” value [2, 7] was 1.33 ng/mL and 1.28 ng/mL and 1.38 ng/mL and 1.27 ng/mL, the “RE (%) vs nominal” value [2, 7] was −12.3% and the “AST-2660 concentration, Mean value” ([2]; QC4 nominal 150 ng/ml, 0 hour) was 136 ng/mL. For the same compound, the “AST-2660 concentration, single replicates” value ([2]; QC4 nominal 150 ng/ml, 0 hour) was 130 ng/mL and 142 ng/mL and 135 ng/mL and 137 ng/mL, the “RE (%) vs nominal” value ([2]; QC4 nominal 150 ng/ml, 0 hour) was −9.3% and the “AST-2660 concentration, Mean value” ([2]; QC4 nominal 150 ng/ml, 4 hours) was 138 ng/mL. For the same compound, the “AST-2660 concentration, single replicates” value ([2]; QC4 nominal 150 ng/ml, 4 hours) was 130 ng/mL and 141 ng/mL and 136 ng/mL and 145 ng/mL, the “RE (%) vs nominal” value ([2]; QC4 nominal 150 ng/ml, 4 hours) was −8.0% and the “AST-2660 concentration, Mean value” [2, 8] was 125 ng/mL. For the same compound, the “AST-2660 concentration, single replicates” value [2, 8] was 117 ng/mL and 128 ng/mL and 124 ng/mL and 129 ng/mL and the “RE (%) vs nominal” value [2, 8] was −17.0%.

From patent publication US20240140970A1, “A […], AND PREPARATION METHOD AND USE THEREOF” (ASCENTAWITS PHARMACEUTICALS, LTD., priority 2021, published 2024)
